The subject of test [1] is human prostate cancer cells PC3. Nature of the test: MTT assay, proliferation of human prostate cancer cells PC3. In kind it is cell-based. The conditions noted are these: for pIC50: Homo sapiens, PC3, MTT, 48 h, 0-32 μM, read-out: IC50 on the proliferation of human prostate cancer cells PC3; for inhibitory effects on human prostate cancer cells PC3 (in words): PC3, summary of Table 4; for effect compared with control gossypol I-A9, PC3: PC3, versus gossypol I-A9. (In general: Tetrazolium assays rely on reduction of a dye to a coloured formazan, in cell work by metabolically active cells.)

In test [2] the test system is human gastric cancer cells MKN45. Briefly: MTT assay, proliferation of human gastric cancer cells MKN45. In kind it is cell-based. The conditions noted are these: for pIC50: Homo sapiens, MKN-45, MKN45, MTT, 48 h, 0-60 μM, read-out: IC50 on the proliferation of human gastric cancer cells MKN45; for inhibitory effects on human gastric cancer cells MKN45 (in words): MKN45, summary of Table 1; for effect compared with control gossypol I-A9, MKN45: MKN45, versus gossypol I-A9. How it is done: The original culture medium for human gastric cancer cells MKN45 was removed, and human gastric cancer cells MKN45 were rinsed with 2 mL of phosphate buffer saline (PBS), digested with 0.5 mL of pancreatic enzyme for 3 min. 2 mL of culture medium was added to the cells and the mixture was transferred to a centrifuge tube. The mixture was centrifuged (200 g) for 5 min. The supernatant was removed. 2 mL of culture medium was sprayed five times to the remaining solution. 0.5 mL of cell suspension was transferred to an Eppendorf (EP) tube and the cells were counted. The cells were cultured on a 96-well plate, each well having 2000 cells, 3 wells for each compound. The numbers of the required cells and wells and the amount of culture medium were calculated. The cells were diluted by the culture medium. 100 μL culture medium was added to each well and were evenly dispersed, each well containing 2000 cells. The cells were transferred to the wells using a pipette, and cultured in an incubator.
(2) Adding Compounds to Culture Medium
The original culture medium was discarded, and the mother liquor of each compound was diluted to final concentrations of 0, 5, 15, 30, 45 and 60 μM, respectively. Each diluent was uniformized. To each head of a multichannel pipette, 100 μL of the diluent was introduced. Three heads were employed. The diluents were added to 3 marked wells (the cells were undamaged) of a tilted 96-well plate, respectively. Different concentrations of diluents were added to three different marked wells and evenly mixed by alternately sucking and blowing with the multichannel pipette 3 times. The 96-well plate was shaken slightly twice, and cultured in a CO2 incubator.
The cells were cultured in different compounds for 48 h and were then detected. Specifically, a clean bench was turned on for 15 min, and phosphate buffer saline (PBS) was pre-heated in a warm water bath for 15 min. MTT was taken out of a refrigerator at −20 degrees, protected from light and thawed (MTT stock solution was 5 mg/mL). MTT and a culture medium were mixed evenly in a V-shaped groove to yield a mixture comprising 500 μg/mL MTT and a culture medium (a volume ratio thereof being 1:10). 100 μL of the prepared MTT mixture was added to each well of the 96-well plate using the multichannel pipette, and then incubated at 37° C. for an appropriate time (1 h), thereby reducing the MTT to formazan (purple crystals formed in the cells under a microscope, which were different in medicated cells and unmedicated cells). The upper liquid was removed with a white pipette tip attached to a vacuum pump. For each concentration of the compounds, 3 pipette tips were employed. After the incubation, the MTT mixture was discarded, and then 100 μL of DMSO was added to each well using the multichannel pipette. The 96-well plate was shaken in a shaker for 10 min (until the purple crystals were dissolved in the cells under the microscope).
The absorbance value of the cells was measured at a wavelength of 550 nm with a microplate reader. The survival rate of the cells treated with different concentrations of compounds was calculated to make a scatter plot. The IC50 results of each compound on the proliferation of human gastric cancer cells MKN45 were shown in Table 1, where Gossypol I-A9 is a control sample.

pIC50: −log10 of the molar value.

Consider `Cc1c(O)c(O)c(C=O)c(COCc2ccccc2)c1Br` [I-A8, 2-((benzyloxy)methyl)-3-bromo-5,6-dihydroxy-4-methylbenzaldehyde], for which, in test [1], the pIC50 was 5.63; the “inhibitory effects on human prostate cancer cells PC3 (in words)” value is on record as “significant inhibitory effects”; the “effect compared with control gossypol I-A9, PC3” value is “superior than the gossypol I-A9”.

On to `CC(C)c1c(O)c(O)c(C=O)c2c1C(c1ccccc1)CC2` (centres unmarked) [Compound I-50, 5,6-dihydroxy-7-isopropyl-1-phenyl-2,3-dihydro-1H-indene-4-carbaldehyde], for which, in test [1], the pIC50 is 5.54; the “inhibitory effects on human prostate cancer cells PC3 (in words)” value is listed as “significant inhibitory effects”; the “effect compared with control gossypol I-A9, PC3” value was “superior than the gossypol I-A9”. Besides, in test [2], the pIC50 was 4.91; the “inhibitory effects on human gastric cancer cells MKN45 (in words)” value is “significant inhibitory effects”; the “effect compared with control gossypol I-A9, MKN45” value is “better than the control gossypol I-A9”.

For the compound `Cc1c(O)c(O)c(C=O)c2c1C(c1ccc(C(F)(F)F)cc1)CC2` (centres unmarked) [Compound I-5], in test [1], the pIC50 is 5.15; the “inhibitory effects on human prostate cancer cells PC3 (in words)” value is on record as “significant inhibitory effects”; the “effect compared with control gossypol I-A9, PC3” value was “superior than the gossypol I-A9”.

`Cc1c(O)c(O)c(C=O)c(COCc2ccccc2)c1-c1ccc(F)cc1` [Compound I-26]: in test [1], the pIC50 was 5.00 and the “inhibitory effects on human prostate cancer cells PC3 (in words)” value is recorded as “significant inhibitory effects”. Besides, in test [2], the pIC50 is 4.78 and the “inhibitory effects on human gastric cancer cells MKN45 (in words)” value is given as “significant inhibitory effects”.

For `Cc1cc(COCc2ccccc2)c(C=O)c(O)c1O` [Compound I-21, 6-((benzyloxy)methyl)-2,3-dihydroxy-4-methylbenzaldehyde], in test [1], the pIC50 was 5.09; the “inhibitory effects on human prostate cancer cells PC3 (in words)” value is recorded as “significant inhibitory effects”; the “effect compared with control gossypol I-A9, PC3” value is given as “superior than the gossypol I-A9”.

On to `COc1cc(OC)c(Cc2c(C=O)c(O)c(O)c(C)c2-c2ccco2)c(OC)c1` [I-A6, 3-(furan-2-yl)-5,6-dihydroxy-4-methyl-2-(2,4,6-trimethoxybenzyl) benzaldehyde], for which, in test [1], the pIC50 was 5.46; the “inhibitory effects on human prostate cancer cells PC3 (in words)” value is given as “significant inhibitory effects”; the “effect compared with control gossypol I-A9, PC3” value is “superior than the gossypol I-A9”.

On to `CCc1cc(COCc2ccccc2)c(C=O)c(O)c1O` [Compound I-31], for which, in test [1], the pIC50 was 5.14; the “inhibitory effects on human prostate cancer cells PC3 (in words)” value is given as “significant inhibitory effects”; the “effect compared with control gossypol I-A9, PC3” value was “superior than the gossypol I-A9”.

`COc1cc(OC)c(Cc2c(C=O)c(O)c(O)c(C)c2-c2ccc(Br)cc2)c(OC)c1` [Compound I-41]: in test [1], the pIC50 is 5.75; the “inhibitory effects on human prostate cancer cells PC3 (in words)” value is given as “significant inhibitory effects”; the “effect compared with control gossypol I-A9, PC3” value is given as “superior than the gossypol I-A9”.

Consider `Cc1cc(COCc2ccccc2)c(CO)c(O)c1O` [Compound I-96], for which, in test [2], the “inhibitory effects on human gastric cancer cells MKN45 (in words)” value is given as “significant inhibitory effects”.

On to `Cc1c(O)c(O)c(C=O)c(CC=C(c2ccccc2)c2ccccc2)c1-c1ccccc1` [Compound I-24], for which, in test [1], the pIC50 is 5.14; the “inhibitory effects on human prostate cancer cells PC3 (in words)” value is “significant inhibitory effects”; the “effect compared with control gossypol I-A9, PC3” value is reported as “superior than the gossypol I-A9”.

As to `COC(=O)c1c(COCc2ccc(OC)cc2)cc(C)c(OC)c1OC` [Compound I-100], the “inhibitory effects on human prostate cancer cells PC3 (in words)” value in test [1] was “significant inhibitory effects”.

For the compound `Cc1c(O)c(O)c(C=O)c(COCc2ccccc2)c1-c1ccc(C(C)(C)C)cc1` [Compound I-46], in test [1], the pIC50 is 5.19; the “inhibitory effects on human prostate cancer cells PC3 (in words)” value is recorded as “significant inhibitory effects”; the “effect compared with control gossypol I-A9, PC3” value is given as “superior than the gossypol I-A9”.

As to `COc1cc(OC)c(Cc2cc(C(C)C)c(O)c(O)c2C=O)c(OC)c1` [Compound I-51], in test [1], the pIC50 was 5.28; the “inhibitory effects on human prostate cancer cells PC3 (in words)” value is listed as “significant inhibitory effects”; the “effect compared with control gossypol I-A9, PC3” value is “superior than the gossypol I-A9”.

For `CCc1c(O)c(O)c(C=O)c(Cc2c(OC)cc(OC)cc2OC)c1-c1ccccc1` [Compound I-44], in test [1], the pIC50 was 5.54; the “inhibitory effects on human prostate cancer cells PC3 (in words)” value is recorded as “significant inhibitory effects”; the “effect compared with control gossypol I-A9, PC3” value was “superior than the gossypol I-A9”.

Regarding `Cc1c(O)c(O)c(C=O)c(COCc2ccccc2)c1-c1ccsc1` [Compound I-48], in test [1], the pIC50 was 4.65 and the “inhibitory effects on human prostate cancer cells PC3 (in words)” value is recorded as “significant inhibitory effects”.

With `Cc1c(O)c(O)c(C=O)c(COCc2ccccc2)c1-c1ccccc1` [Compound I-25], in test [1], the pIC50 was 5.08; the “inhibitory effects on human prostate cancer cells PC3 (in words)” value is “significant inhibitory effects”; the “effect compared with control gossypol I-A9, PC3” value is given as “superior than the gossypol I-A9”.

With `CC(C)c1c(O)c(O)c(C=O)c(COCc2ccccc2)c1-c1ccccc1` [Compound I-55], in test [1], the pIC50 is 5.69; the “inhibitory effects on human prostate cancer cells PC3 (in words)” value is “significant inhibitory effects”; the “effect compared with control gossypol I-A9, PC3” value is “superior than the gossypol I-A9”.

As for `COc1cc(OC)c(Cc2c(C=O)c(O)c(O)c(C)c2-c2ccc([N+](=O)[O-])cc2)c(OC)c1` [Compound I-42, 4,5-dihydroxy-6-methyl-4′-nitro-2-(2,4,6-trimethoxybenzyl)-(1,1′-biphenyl)-3-carbaldehyde], in test [1], the pIC50 was 5.55; the “inhibitory effects on human prostate cancer cells PC3 (in words)” value is given as “significant inhibitory effects”; the “effect compared with control gossypol I-A9, PC3” value was “superior than the gossypol I-A9”.

`Cc1c(O)c(O)c(C=O)c(COCc2ccccc2)c1-c1cccc2ccccc12` [Compound I-47]: in test [1], the pIC50 is 5.09; the “inhibitory effects on human prostate cancer cells PC3 (in words)” value was “significant inhibitory effects”; the “effect compared with control gossypol I-A9, PC3” value is listed as “superior than the gossypol I-A9”.

Take `Cc1c(C)c(COCc2ccccc2)c(C=O)c(O)c1O` [Compound I-39]: in test [2], the pIC50 is 5.18; the “inhibitory effects on human gastric cancer cells MKN45 (in words)” value is given as “significant inhibitory effects”; the “effect compared with control gossypol I-A9, MKN45” value is “better than the control gossypol I-A9”.

As for `CC(C)c1cc(COCc2ccccc2)c(C=O)c(O)c1O` [Compound I-53], in test [1], the pIC50 is 5.18; the “inhibitory effects on human prostate cancer cells PC3 (in words)” value was “significant inhibitory effects”; the “effect compared with control gossypol I-A9, PC3” value was “superior than the gossypol I-A9”.
